Reference: ChEMBL document CHEMBL1201862, “PubChem BioAssay data set” (2004)
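Each compound was tested at five concentrations against cells in 96-well plates for 48 hours. GI50 marks 50% less growth.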 Active and inactive are the calls of the source. Rule as the data show it: active = GI50 up to about 1.1 µM and inactive = higher.

Tests used:
Assay in all cases: NCI tumour cell line growth inhibition, 48 h
NCI-H226 = tested on: NCI-H226
SNB-75 = tested on: SNB-75
T47D = tested on: T47D
ACHN = tested on: ACHN
TK-10 = tested on: TK-10
UO-31 = tested on: UO-31
HOP-62 = tested on: HOP-62
SN12C = tested on: SN12C
LOX IMVI = tested on: LOX IMVI
UACC-257 = tested on: UACC-257
OVCAR-5 = tested on: OVCAR-5
DU-145 = tested on: DU-145
SK-MEL-5 = tested on: SK-MEL-5
RPMI-8226 = tested on: RPMI-8226
U-251 = tested on: U-251
IGROV-1 = tested on: IGROV-1
COLO 205 = tested on: COLO 205
NCI/ADR-RES = tested on: NCI/ADR-RES
MOLT-4 = tested on: MOLT-4
SK-MEL-2 = tested on: SK-MEL-2
MCF7 = tested on: MCF7
CAKI-1 = tested on: CAKI-1
HCT-116 = tested on: HCT-116
SF-295 = tested on: SF-295
NCI-H23 = tested on: NCI-H23
OVCAR-8 = tested on: OVCAR-8
HT-29 = tested on: HT-29
MDA-N = tested on: MDA-N
M14 = tested on: M14
PC-3 = tested on: PC-3
SNB-19 = tested on: SNB-19
HOP-92 = tested on: HOP-92
HCT-15 = tested on: HCT-15
A549 = tested on: A549
SK-OV-3 = tested on: SK-OV-3
SR = tested on: SR
NCI-H460 = tested on: NCI-H460
SW-620 = tested on: SW-620
OVCAR-3 = tested on: OVCAR-3
HL-60 = tested on: HL-60
MDA-MB-231 = tested on: MDA-MB-231
K562 = tested on: K562
CCRF-CEM = tested on: CCRF-CEM
Hs-578T = tested on: Hs-578T
OVCAR-4 = tested on: OVCAR-4
MDA-MB-435 = tested on: MDA-MB-435
HCC 2998 = tested on: HCC 2998
SK-MEL-28 = tested on: SK-MEL-28
Malme-3M = tested on: Malme-3M
KM12 = tested on: KM12
786-0 = tested on: 786-0
UACC-62 = tested on: UACC-62
NCI-H522 = tested on: NCI-H522
RXF 393 = tested on: RXF 393
A498 = tested on: A498
SF-268 = tested on: SF-268
SF-539 = tested on: SF-539
EKVX = tested on: EKVX

For `COP(C)(=O)/C(Cc1ccccc1)=N\O` (stereo not given), the GI50 (NCI-H226) was > 100 µM (inactive), the GI50 (SNB-75) was > 100 µM (inactive) and the GI50 (T47D) was > 100 µM (inactive). For the same compound, the GI50 (ACHN) was > 100 µM (inactive), the GI50 (TK-10) was > 100 µM (inactive) and the GI50 (UO-31) was > 100 µM (inactive). For the same compound, the GI50 (HOP-62) was > 100 µM (inactive), the GI50 (SN12C) was > 100 µM (inactive) and the GI50 (LOX IMVI) was > 100 µM (inactive). The GI50 (UACC-257) was > 100 µM (inactive), the GI50 (OVCAR-5) was > 100 µM (inactive) and the GI50 (DU-145) was > 100 µM (inactive). The GI50 (SK-MEL-5) was > 100 µM (inactive), the GI50 (RPMI-8226) was > 100 µM (inactive) and the GI50 (U-251) was > 100 µM (inactive). For the same compound, the GI50 (IGROV-1) was > 100 µM (inactive), the GI50 (COLO 205) was > 100 µM (inactive) and the GI50 (NCI/ADR-RES) was > 100 µM (inactive). For the same compound, the GI50 (MOLT-4) was > 100 µM (inactive), the GI50 (SK-MEL-2) was > 100 µM (inactive) and the GI50 (MCF7) was > 100 µM (inactive). For the same compound, the GI50 (CAKI-1) was > 100 µM (inactive), the GI50 (HCT-116) was > 100 µM (inactive) and the GI50 (SF-295) was > 100 µM (inactive). The GI50 (NCI-H23) was > 100 µM (inactive), the GI50 (OVCAR-8) was > 100 µM (inactive) and the GI50 (HT-29) was > 100 µM (inactive). The GI50 (MDA-N) was > 100 µM (inactive), the GI50 (M14) was > 100 µM (inactive) and the GI50 (PC-3) was > 100 µM (inactive). The GI50 (SNB-19) was > 100 µM (inactive), the GI50 (HOP-92) was > 100 µM (inactive) and the GI50 (HCT-15) was greater than 100 µM. The GI50 (A549) was > 100 µM (inactive), the GI50 (SK-OV-3) was > 100 µM (inactive) and the GI50 (SR) was > 100 µM (inactive). For the same compound, the GI50 (NCI-H460) was > 100 µM (inactive), the GI50 (SW-620) was > 100 µM (inactive) and the GI50 (OVCAR-3) was > 100 µM (inactive). For the same compound, the GI50 (HL-60) was > 100 µM (inactive), the GI50 (MDA-MB-231) was > 100 µM (inactive) and the GI50 (K562) was > 100 µM (inactive). For the same compound, the GI50 (CCRF-CEM) was > 100 µM (inactive), the GI50 (Hs-578T) was > 100 µM (inactive) and the GI50 (OVCAR-4) was > 100 µM (inactive). The GI50 (MDA-MB-435) was > 100 µM (inactive), the GI50 (HCC 2998) was > 100 µM (inactive) and the GI50 (SK-MEL-28) was > 100 µM (inactive).
For `O=c1[nH]nc(-c2ccccc2)n1O`, the GI50 (NCI-H226) was > 100 µM (inactive), the GI50 (Malme-3M) was > 100 µM (inactive) and the GI50 (T47D) was > 100 µM (inactive). For the same compound, the GI50 (ACHN) was > 100 µM (inactive), the GI50 (TK-10) was > 100 µM (inactive) and the GI50 (KM12) was > 100 µM (inactive). The GI50 (786-0) was > 100 µM (inactive), the GI50 (UO-31) was > 100 µM (inactive) and the GI50 (HOP-62) was > 100 µM (inactive). For the same compound, the GI50 (SN12C) was > 100 µM (inactive), the GI50 (UACC-62) was > 100 µM (inactive) and the GI50 (LOX IMVI) was > 100 µM (inactive). For the same compound, the GI50 (NCI-H522) was > 100 µM (inactive), the GI50 (UACC-257) was > 100 µM (inactive) and the GI50 (OVCAR-5) was > 100 µM (inactive). For the same compound, the GI50 (DU-145) was > 100 µM (inactive), the GI50 (SK-MEL-5) was > 100 µM (inactive) and the GI50 (RPMI-8226) was > 100 µM (inactive). For the same compound, the GI50 (U-251) was > 100 µM (inactive), the GI50 (IGROV-1) was > 100 µM (inactive) and the GI50 (COLO 205) was > 100 µM (inactive). The GI50 (NCI/ADR-RES) was > 100 µM (inactive), the GI50 (MOLT-4) was > 100 µM (inactive) and the GI50 (SK-MEL-2) was > 100 µM (inactive). For the same compound, the GI50 (MCF7) was > 100 µM (inactive), the GI50 (CAKI-1) was > 100 µM (inactive) and the GI50 (HCT-116) was > 100 µM (inactive). The GI50 (RXF 393) was > 100 µM (inactive), the GI50 (A498) was > 100 µM (inactive) and the GI50 (SF-295) was > 100 µM (inactive). For the same compound, the GI50 (NCI-H23) was > 100 µM (inactive), the GI50 (OVCAR-8) was > 100 µM (inactive) and the GI50 (HT-29) was > 100 µM (inactive). The GI50 (MDA-N) was > 100 µM (inactive), the GI50 (M14) was > 100 µM (inactive) and the GI50 (PC-3) was > 100 µM (inactive). For the same compound, the GI50 (SNB-19) was > 100 µM (inactive), the GI50 (HOP-92) was > 100 µM (inactive) and the GI50 (HCT-15) was greater than 100 µM. The GI50 (A549) was > 100 µM (inactive), the GI50 (SK-OV-3) was > 100 µM (inactive) and the GI50 (SR) was > 100 µM (inactive). The GI50 (NCI-H460) was > 100 µM (inactive), the GI50 (SW-620) was > 100 µM (inactive) and the GI50 (SF-268) was 91.4 µM (inactive). The GI50 (SF-539) was > 100 µM (inactive), the GI50 (OVCAR-3) was > 100 µM (inactive) and the GI50 (HL-60) was > 100 µM (inactive). The GI50 (MDA-MB-231) was > 100 µM (inactive), the GI50 (K562) was > 100 µM (inactive) and the GI50 (CCRF-CEM) was > 100 µM (inactive). The GI50 (Hs-578T) was > 100 µM (inactive), the GI50 (EKVX) was > 100 µM (inactive) and the GI50 (OVCAR-4) was > 100 µM (inactive). The GI50 (MDA-MB-435) was > 100 µM (inactive), the GI50 (HCC 2998) was > 100 µM (inactive) and the GI50 (SK-MEL-28) was > 100 µM (inactive).
